Test results taken from PubChem BioAssay (NCI).
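Protocol summary: plate cells (96-well), add compound at 5 concentrations, incubate 48 h, interpolate endpoints linearly. Here, GI50 denotes the concentration required for 50% inhibition of growth. TGI denotes the concentration required for complete inhibition of growth.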

Experiments:
Test in all cases: NCI tumour cell line growth inhibition, 48 h
[1] = tested on: U251 CNS
[2] = tested on: HCT-116 colon
[3] = tested on: SR leukemia
[4] = tested on: OVCAR-5 ovarian
[5] = tested on: MOLT-4 leukemia
[6] = tested on: NCI-H23 lung
[7] = tested on: K-562 leukemia
[8] = tested on: UO-31 renal
[9] = tested on: LOX IMVI melanoma
[10] = tested on: MDA-MB-231 breast

Row | Structure (SMILES) | GI50 [1] | TGI [1] | GI50 [2] | TGI [2] | TGI [3] | GI50 [4] | TGI [4] | GI50 [5] | TGI [5] | GI50 [6] | TGI [6] | GI50 [7] | TGI [7] | GI50 [8] | TGI [8] | TGI [9] | GI50 [9] | GI50 [10] | TGI [10] | GI50 [3]
1 | CCCOC(=O)C1C(c2ccc(OC)cc2)NC(c2ccc(OC)cc2)C(C(=O)OCCC)S1(=O)=O (stereo unspecified) | > 100 µM | > 100 µM | > 100 µM | > 100 µM | > 100 µM | > 100 µM | > 100 µM | > 100 µM | > 100 µM | > 100 µM | > 100 µM | > 100 µM | > 100 µM | > 100 µM | > 100 µM |  |  |  |  | 
2 | COc1ccc(C)cc1-c1ccc(-c2cc(C)ccc2OC)o1 |  | > 100 µM |  | > 100 µM |  |  | > 100 µM |  | > 100 µM |  | > 100 µM |  | > 100 µM |  | > 100 µM | > 100 µM |  |  |  | 
3 | N/N=C1\C(=O)N(c2ccc(Cl)c(Cl)c2)C(=O)C1C(=O)Nc1ccc(Cl)c(Cl)c1 (stereo unspecified) |  | > 100 µM |  | > 100 µM |  |  | > 100 µM |  | > 100 µM |  | > 100 µM |  | > 100 µM |  | 84 µM |  |  |  |  | 
4 | CC1(C)CCOC(Sc2ccccc2)C1 (stereo unspecified) |  | > 100 µM |  | > 100 µM | > 100 µM |  |  |  | > 100 µM |  | > 100 µM |  | > 100 µM |  | > 100 µM | > 100 µM |  |  |  | 
5 | COc1ccc(C2=NC(CO)[C@H](c3ccccc3)O2)cc1OC (stereo partly specified) |  |  |  | > 100 µM |  |  | > 100 µM |  | > 100 µM |  |  |  | > 100 µM |  | > 100 µM | > 100 µM |  |  |  | 
6 | Cc1cc(N)c2cc(NC(=O)/C=C\c3ccccc3Cl)ccc2n1 | 0.269 µM | 0.724 µM | 0.208 µM | 0.416 µM |  | 1.33 µM | 2.69 µM | 1.09 µM | 2.54 µM | 1.73 µM | 3.32 µM | 0.416 µM | 1.48 µM | 1.78 µM | 3.22 µM | 0.447 µM | 0.212 µM | 1.21 µM | 2.47 µM | 
7 | CCOC(=O)CCC(NC(=O)c1ccc(Oc2nc3cc(N)cc(N)c3nc2-c2ccccc2)cc1)C(=O)OCC (stereo unspecified) | > 100 µM | > 100 µM | 15.1 µM | 28.7 µM |  | 96.8 µM | > 100 µM | 39 µM | > 100 µM | 15.5 µM | 30.4 µM |  |  | 48.7 µM | > 100 µM | 26.1 µM | 11.9 µM | 11.3 µM | 32.6 µM | 
8 | Oc1ccc(Br)cc1C=Nc1ccc(Oc2ccc(N=Cc3cc(Br)ccc3O)cc2)cc1 |  | > 19.6 µM |  | > 19.6 µM | > 19.6 µM |  | > 19.6 µM |  | > 19.6 µM |  | > 19.6 µM |  | > 19.6 µM |  | > 19.6 µM | > 19.6 µM |  |  |  | 
9 | CC[P+](C)(C)CC |  | > 100 µM |  | > 100 µM | > 100 µM |  | > 100 µM |  | > 100 µM |  | > 100 µM |  | > 100 µM |  | > 100 µM | > 100 µM |  |  |  | 
10 | Cc1c(C(=O)Nc2ccc(Oc3ccnc4cc(OCC(C)(C)O)ccc34)c(F)c2)c(=O)n(-c2ccccc2)n1C | 8.86 µM | > 100 µM |  |  | > 100 µM |  |  |  |  |  |  | 0.393 µM | 15.3 µM |  |  |  |  |  |  | 3.66 µM
11 | CCOC(=O)c1nc2sc(Cl)cn2c1/C=N/N=C(N)N | 23.6 µM | > 53.9 µM | 18 µM | 40.8 µM |  | 20.7 µM | 49.5 µM | 22.8 µM | > 100 µM | 20.4 µM | > 69.8 µM | 17 µM | 53.6 µM | 18.3 µM | 35.6 µM | > 54.6 µM | 25.3 µM | 14.3 µM | 37.2 µM | 
12 | O=C1OC(=O)c2c1cc1cc3c(cc1c2-c1ccc2c(c1)OCO2)OCO3 |  | > 100 µM |  | > 100 µM |  |  | > 100 µM |  | > 100 µM |  | > 100 µM |  | > 100 µM |  | > 100 µM |  |  |  | > 100 µM | 
13 | O=C(N/N=C/c1coc2ccc(Cl)cc2c1=O)c1cc(O)c(O)c(O)c1 | 22.2 µM | 57.2 µM | 19.3 µM | 70 µM |  | 24.6 µM | 74.9 µM | 13.7 µM | 61.6 µM | 16.2 µM | 48.1 µM | 15.2 µM | 55.6 µM | 40 µM | > 100 µM | 56.6 µM | 22.5 µM | 19.3 µM | 45 µM | 
14 | CC1Nc2ccccc2NC1C=C(C#N)C#N (stereo unspecified) |  | 30.3 µM |  | 26.8 µM | 22.4 µM |  | 33.4 µM |  | 24.6 µM |  | 34.6 µM |  | 48.5 µM |  | 28.3 µM | 25.5 µM |  |  |  | 
15 | Cc1ccccc1-c1cc(=O)c2cc(C)c(C)c(C(=O)O)c2o1 |  | > 100 µM |  | > 100 µM | > 100 µM |  | > 100 µM |  | > 100 µM |  | > 100 µM |  | > 100 µM |  | > 100 µM | > 100 µM |  |  |  | 
16 | Cc1nc2ccccc2c(/C=C/c2ccc(C(F)(F)F)cc2)c1C(=O)/C=C/c1ccccc1 | 1.47 µM | 2.92 µM | 0.521 µM | 2.03 µM |  | 1.86 µM | 3.35 µM | 0.508 µM | 5.79 µM |  |  |  |  | 1.08 µM | 2.27 µM | 2.94 µM | 1.58 µM | 1.74 µM | 3.65 µM | 
17 | NNC(=S)N/N=C(\c1nc2ccc(Cl)cc2[nH]c1=O)C(O)c1cccc([N+](=O)[O-])c1 (stereo unspecified) |  | > 100 µM |  | > 31.6 µM | 33.8 µM |  | > 100 µM |  | > 100 µM |  | > 61.9 µM |  | > 70.2 µM |  | > 100 µM | > 56.6 µM |  |  |  | 
18 | O=C1CC2=CCCC2O1 (stereo unspecified) |  | > 100 µM |  | > 100 µM |  |  |  |  | > 100 µM |  | > 100 µM |  | > 100 µM |  | > 100 µM | > 100 µM |  |  |  | 
19 | CN(C)Cc1nsc(N(C)C)n1 |  | > 100 µM |  | > 100 µM |  |  | > 100 µM |  |  |  | > 100 µM |  | > 100 µM |  | > 100 µM | > 100 µM |  |  | > 100 µM | 
20 | CC(C)(C)c1ccc(OCCCCCCCN2CCNCC2)cc1 | 1.51 µM | 3.05 µM |  |  |  |  |  | 1.7 µM | 3.71 µM | 4.28 µM | 17.6 µM | 1.56 µM | 3.81 µM | 1.43 µM | 3.31 µM | 3.06 µM | 1.52 µM | 1.31 µM | 3.02 µM | 
